pEC50: −log10 of the molar value. Structures can show the parent of a compound that is named as a salt.
System: muscle progenitors derived from DMD hiPSC
Assay: Myotube assay: total myotube area per well (alpha-actinin staining)
Type: cell-based, human
Conditions: Homo sapiens, Myotube, 72 h, DMD or WT cell source not given; for Emax: efficacy, MA = normalized Myotube Area, 3 days incubation; for pEC50: myogenic activity, half-maximal generation of myotubes, 10 points dose-response 1.5 nM to 30 µM, 3 days
Procedure: An in vitro assay for assessing the efficacy of compounds for use in treating, ameliorating, delaying, curing and/or preventing a disease or condition associated with muscle cells and/or satellite cells is described in example 78. Herein, the generation of myotubes and satellite cells after adding a compound to a myotube assay workflow is assessed. Said myotube assay workflow is derived from wild-type or DMD human induced pluripotent stem cells (WT hiPSC or DMD hiPSC). Before the addition of said compound, the assay comprises satellite-like cells, but no significant amount of myotubes.
The efficacy of said compound for use in treating, ameliorating, delaying, curing and/or preventing a disease or condition associated with muscle cells and/or satellite cells is positively correlated with the generation of myotubes (i.e. the increase of the area occupied by myotubes on the assay) and/or satellite cells (i.e. the increase of the number of satellite cells) in the assay after adding said compound. The generation of myotubes by the addition of said compound is expressed as the EC50 value, the concentration of said compound that corresponds with the half-maximal generation of myotubes, and the MA (normalized myotube area) value, the normalized area occupied by generated myotubes on the assay. […] Since muscle cells are formed from myotubes during myogenesis, the generation of myotubes in the assay is a good indicator of the ability of said compound to induce the formation of functional muscle cells in vivo. The number of satellite cells is measured as the percentage of Pax7 positive cells, relative to the total number of cells in the assay, as shown in Figure 3. The percentage of Pax7 is a good indicator of the ability of said compound to induce the formation of satellite cells which are able to play a role in muscle repair and regeneration in vivo.
DMD human induced pluripotent stem cells (hereafter "DMD hiPSC"), generated from the NCRM-1 hiPSC WT cell line by gene editing, or WT human induced pluripotent stem cells (hereafter "WT hiPSC"), being NCRM-1 hiPSC wt cell line, have been differentiated according to Chal et al. 2015, 2016, to produce muscle progenitors (hereafter "hMP"). The hMP population contains satellite-like cells (i.e Pax7-positive cells) and satellite cells' progenies (i.e. Myogenin-positive cells).
Figure 1 provides an example of a Myotube assay workflow. At day 0, hMP are thawed and 3.1 million cells are plated into a T75-flask coated with hESC-qualified Matrigel™ (Corning) in SkGM proliferating medium (PromoCells), supplemented with 5 µM Y-27632 (Tocris Bioscience). On day 2, SkGM proliferating medium is refreshed. On day 4, hMP are harvested and transferred into a 384-well plate coated with collagen type I at a density of 3500 cells/well in a DMEM-based medium, containing 5% of knockout serum replacement (Gibco), 1% PenStrep (Gibco), 1% MEM NEAA (Gibco) and 0.1 mM 2-mercaptoethanol (Gibco) (hereafter "K5 medium") and 5 µM Y-27632. Compounds to be tested are then added in the medium and incubated for 3 days at 37°C. On day 7, cells are fixed and immunostained. For example, myotubes (alpha-actinin staining) and satellite-like (Pax7 staining) cells can be analyzed for total myotube area per well or Pax7-positive cell quantification.
DMD hMP were put in the Myotube assay according to the workflow described in Example 2.1. In particular, compound (i) was added at concentrations ranging from 1.5 nM to 30 µM, starting from day 4. hMP were cultivated for three more days in presence of compound (i), then fixed and analyzed for quantification of total myotube area per well. Duplicates of each condition were averaged.

pEC50	Compound	Emax
> 6.30	CC(C)(C)c1cnc(NC(=O)Nc2ccc(Oc3ccnc4c3CCC(=O)N4)c3ccccc23)s1 [(cu), 1-(5-(tert-butyl)thiazol-2-yl)-3-(4-((7-oxo-5,6,7,8-tetrahydro-1,8-naphthyridin-4-yl)oxy)naphthalen-1-yl)urea]	≥ 75%
≤ 5.30	CSc1cc(Oc2ccnc3[nH]c(=O)cnc23)ccc1NC(=O)Nc1cc(C(C)(C)C)nn1-c1ccccn1 [(ar), 1-(3-(tert-butyl)-1-(pyridin-2-yl)-1H-pyrazol-5-yl)-3-(2-(methylthio)-4-((3-oxo-3,4-dihydropyrido[2,3-b]pyrazin-8-yl)oxy)phenyl)urea]	≥ 75%
> 6.30	CCOC(=O)Nc1cc(Oc2ccc(NC(=O)Nc3cc(C(C)(C)C)no3)c3ccccc23)ccn1 [(db), ethyl (4-((4-(3-(3-(tert-butyl)isoxazol-5-yl)ureido)naphthalen-1-yl)oxy)pyridin-2-yl)carbamate]	≥ 75%
6.00 to 6.30	CSc1cc(Oc2ccnc3[nH]c(=O)cnc23)ccc1NC(=O)Nc1cc(C(C)(C)C)no1 [(bx), 1-(3-(tert-butyl)isoxazol-5-yl)-3-(2-(methylthio)-4-((3-oxo-3,4-dihydropyrido[2,3-b]pyrazin-8-yl)oxy)phenyl)urea]	≥ 75%
6.00 to 6.30	CC(C)Cc1cc(NC(=O)Nc2ccc(Oc3ccnc4[nH]c(=O)cnc34)cc2F)n(-c2ccccc2)n1 [(g), 1-(2-fluoro-4-((3-oxo-3,4-dihydropyrido[2,3-b]pyrazin-8-yl)oxy)phenyl)-3-(3-isobutyl-1-phenyl-1H-pyrazol-5-yl)urea]	≥ 75%
> 6.30	CC(C)(C)c1cc(NC(=O)Nc2ccc(Oc3ccnc4[nH]c(=O)cnc34)nc2)n(-c2ccccc2)n1 [(t), 1-(3-(tert-butyl)-1-phenyl-1 H-pyrazol-5-yl)-3-(6-((3-oxo-3,4-dihydropyrido[2,3-b]pyrazin-8-yl)oxy)pyridin-3-yl)urea]	25 to 50%
≤ 5.30	CSc1cc(Oc2ccnc(N(CCN(C)C)C(=O)OC(C)(C)C)c2)ccc1NC(=O)Nc1cc(C(C)(C)C)nn1-c1ccccc1 [(ch), tert-butyl (4-(4-(3-(3-(tert-butyl)-1-phenyl-1H-pyrazol-5-yl)ureido)-3-(methylthio)phenoxy)pyridin-2-yl)(2-(dimethylamino)ethyl)carbamate]	50 to 75%
5.30 to 6.00	CSc1cc(Oc2cccc3[nH]ncc23)ccc1NC(=O)Nc1cc(C(C)(C)C)nn1-c1ccccc1 [(cn), 1-(4-((1H-indazol-4-yl)oxy)-2-(methylthio)phenyl)-3-(3-(tert-butyl)-1-phenyl-1H-pyrazol-5-yl)urea]	50 to 75%
≤ 5.30	CC(=O)n1nc(C(C)(C)C)cc1NC(=O)Nc1ccc(Oc2ccnc3[nH]c(=O)cnc23)cc1F [(o), 1-(1-acetyl-3-(tert-butyl)-1 H-pyrazol-5-yl)-3-(2-fluoro-4-((3-oxo-3,4-dihydropyrido[2,3-b]pyrazin-8-yl)oxy)phenyl)urea]	25 to 50%
≤ 5.30	CSc1cc(Oc2ccnc3c2CCC(=O)N3)ccc1NC(=O)Nc1cncc(C(F)(F)F)c1 [(cg), 1-(2-(methylthio)-4-((7-oxo-5,6,7,8-tetrahydro-1,8-naphthyridin-4-yl)oxy)phenyl)-3-(5-(trifluoromethyl)pyridin-3-yl)urea]	≥ 75%
5.30 to 6.00	CNC(=O)c1cc(Oc2ccc(NC(=O)Nc3cc(C(C)(C)C)nn3-c3ccc4ncccc4c3)c3ccccc23)ccn1 [(bf), 4-((4-(3-(3-(tert-butyl)-1-(quinolin-6-yl)-1 H-pyrazol-5-yl)ureido)naphthalen-1-yl)oxy)-N-methylpicolinamide]	≥ 75%
> 6.30	CC(C)(C)c1cc(NC(=O)Nc2ccc(Oc3ccnc4[nH]c(=O)cnc34)cc2C(F)(F)F)n(-c2ccccc2)n1 [(v), 1-(3-(tert-butyl)-1-phenyl-1H-pyrazol-5-yl)-3-(4-((3-oxo-3,4-dihydropyrido[2,3-b]pyrazin-8-yl)oxy)-2-(trifluoromethyl)phenyl)urea]	≥ 75%
> 6.30	CSc1cc(Oc2ccnc3c2CCC(=O)N3)ccc1NC(=O)Nc1cc(C(C)(C)C)nn1-c1ccccc1 [(an), 1-(3-(tert-butyl)-1-phenyl-1H-pyrazol-5-yl)-3-(2-(methylthio)-4-((7-oxo-5,6,7,8-tetrahydro-1,8-naphthyridin-4-yl)oxy)phenyl)urea]	≥ 75%
6.00 to 6.30	CSc1cc(Oc2ccnc(NCCN(C)C)c2)ccc1NC(=O)Nc1cc(C(C)(C)C)nn1-c1ccccc1 [(ck), 1-(3-(tert-butyl)-1-phenyl-1 H-pyrazol-5-yl)-3-(4-((2-((2-(dimethylamino)ethyl)amino)pyridin-4-yl)oxy)-2-(methylthio)phenyl)urea hydrochloride]	≥ 75%
≤ 5.30	CSc1cc(Oc2cccc3c2CCC(=O)N3)ccc1NC(=O)Nc1cc(C(C)(C)C)nn1-c1ccccc1 [(ci), 1-(3-(tert-butyl)-1-phenyl-1H-pyrazol-5-yl)-3-(2-(methylthio)-4-((2-oxo-1,2,3,4-tetrahydroquinolin-5-yl)oxy)phenyl)urea]	25 to 50%
≤ 5.30	CC(=O)Nc1cc(Oc2ccc(NC(=O)Nc3cc(C(C)(C)C)nn3-c3ccccc3)c(F)c2)ccn1 [(ae), N-(4-(4-(3-(3-(tert-butyl)-1-phenyl-1H-pyrazol-5-yl)ureido)-3-fluorophenoxy)pyridin-2-yl)acetamide]	50 to 75%
≤ 5.30	O=C(Nc1ccc(Oc2ccnc3[nH]c(=O)cnc23)cc1F)Nc1c(-c2ccccc2)nn2c1CCC2 [(y), 1-(2-fluoro-4-((3-oxo-3,4-dihydropyrido[2,3-b]pyrazin-8-yl)oxy)phenyl)-3-(2-phenyl-5,6-dihydro-4H-pyrrolo[1,2-b]pyrazol-3-yl)urea]	25 to 50%
≤ 5.30	CC(C)(C)c1cc(NC(=O)Nc2cccc(Oc3ccnc4[nH]c(=O)cnc34)c2F)n(-c2ccccc2)n1 [(cw), 1-(3-(tert-butyl)-1-phenyl-1 H-pyrazol-5-yl)-3-(2-fluoro-3-((3-oxo-3,4-dihydropyrido[2,3-b]pyrazin-8-yl)oxy)phenyl)urea]	≥ 75%
≤ 5.30	CSc1cc(Oc2ccnc3[nH]c(=O)cnc23)ccc1NC(=O)Nc1nc(-c2ccc(F)c(F)c2)cs1 [(ax), 1-(4-(3,4-difluorophenyl)thiazol-2-yl)-3-(2-(methylthio)-4-((3-oxo-3,4-dihydropyrido[2,3-b]pyrazin-8-yl)oxy)phenyl)urea]	50 to 75%
6.00 to 6.30	CSc1cc(Oc2ccnc(NC(=O)OCc3ccccc3)c2)ccc1NC(=O)Nc1cc(C(C)(C)C)nn1-c1ccccc1 [(cx), benzyl (4-(4-(3-(3-(tert-butyl)-1-phenyl-1H-pyrazol-5-yl)ureido)-3-(methylthio)phenoxy)pyridin-2-yl)carbamate]	≥ 75%
> 6.30	CCOC(=O)Nc1cc(Oc2ccc(NC(=O)Nc3ncc(C(C)(C)C)s3)c3ccccc23)ccn1 [(dc), ethyl (4-((4-(3-(5-(tert-butyl)thiazol-2-yl)ureido)naphthalen-1-yl)oxy)pyridin-2-yl)carbamate]	≥ 75%
≤ 5.30	CC(C)(C)c1nnc(NC(=O)Nc2ccc(Oc3ccnc4[nH]c(=O)cnc34)cc2F)s1 [(r), 1-(5-(tert-butyl)-1,3,4-thiadiazol-2-yl)-3-(2-fluoro-4-((3-oxo-3,4-dihydropyrido[2,3-b]pyrazin-8-yl)oxy)phenyl)urea]	≥ 75%
> 6.30	CC(=O)Nc1cc(Oc2ccc(NC(=O)Nc3cc(C(C)(C)C)nn3-c3ccccc3)c3ccccc23)ccn1 [(dj), N-(4-((4-(3-(3-(tert-butyl)-1-phenyl-1H-pyrazol-5-yl)ureido)naphthalen-1-yl)oxy)pyridin-2-yl)acetamide]	≥ 75%
